No end group written: not given here.
Key:
HIV-1IIIB = test: HIV-1 antiviral assay (CPE reduction, MTS); type: cell-based; settings: peptide 10 micrograms per ml, 6 days post-infection
[1] = Cytotoxicity in CEM-SS cells (MTS cell viability); settings: human
Streptococcus pneumoniae = type: cell-based; settings: 5 micrograms per ml
in vitro = settings: human, HepG2-2.2.15 cells
Description: HepG2-2.2.15 cells were plated in 96-well microtiter plates. After 16-24 hours the confluent monolayer of HepG2-2.2.15 cells was washed and the medium was replaced with complete medium containing test peptide—10 micrograms per ml—in duplicate. […] Three days later the culture medium was replaced with fresh medium containing the peptide. […] A novel dye uptake assay was then employed to measure cell viability, which is used to calculate toxicity (% cell control).

MRSA = settings: 5 micrograms per ml
Pseudomonas aeruginosa = type: cell-based; settings: 5 micrograms per ml
[2] = Cytotoxicity in MRC-5 cells (CellTiter 96); settings: human

Compound | % CPE reduction in HIV-1 infected CEM-SS cells (HIV-1IIIB) [%] | viability at 10 micrograms per ml [1] [%] | % inhibition (Streptococcus pneumoniae) [%] | viability at 144 h, 10 micrograms per ml (in vitro) [%] | % inhibition (MRSA) [%] | % inhibition (Pseudomonas aeruginosa) [%] | viability at 144 h [2] [%]
Cc1cn([C@H]2C[C@H](N=[N+]=[N-])[C@@H](CO)O2)c(=O)[nH]c1=O [AZT] | 99 | – | – | – | – | – | –
SFLLRNPNDKYEPF-OH [TRAP-14] | – | 100 | 0.0 | 84.5 | 0.0 | 0.0 | 100
